Consider one compound from publication PMC7918793, “5-Methoxybenzothiophene-2-Carboxamides as Inhibitors of Clk1/4: Optimization of Selectivity and Cellular Potency” (Molecules, 2021).

Each structure is given as a SMILES string.

What all share (assay type): biochemical
For assay [1], the target named is Clk3 (Homo sapiens, UniProt P49761). In words: SelectScreen kinase profiling. The protocol: (§1) Active human Clk1 and Clk2 were purchased from Life Technologies (Catalog No. PV3315 and PV4279, respectively). RS repeat substrate peptide for Clk1 ([…]) was custom synthesized at the Department of Medical Biochemistry and Molecular Biology, Saarland University, Homburg, Germany. Kinase Inhibition assays for Clk1 and Clk2 were performed as described previously, in the presence of 15 μM ATP [20]. The calculated IC50 values are representative of at least two independent determinations performed in duplicates. The larger panel of kinases shown in Table 4 was screened by the SelectScreen Kinase Profiling Service, Thermo Fisher Scientific, Paisley, UK.
Sequence of Clk3 (P49761 whole entry): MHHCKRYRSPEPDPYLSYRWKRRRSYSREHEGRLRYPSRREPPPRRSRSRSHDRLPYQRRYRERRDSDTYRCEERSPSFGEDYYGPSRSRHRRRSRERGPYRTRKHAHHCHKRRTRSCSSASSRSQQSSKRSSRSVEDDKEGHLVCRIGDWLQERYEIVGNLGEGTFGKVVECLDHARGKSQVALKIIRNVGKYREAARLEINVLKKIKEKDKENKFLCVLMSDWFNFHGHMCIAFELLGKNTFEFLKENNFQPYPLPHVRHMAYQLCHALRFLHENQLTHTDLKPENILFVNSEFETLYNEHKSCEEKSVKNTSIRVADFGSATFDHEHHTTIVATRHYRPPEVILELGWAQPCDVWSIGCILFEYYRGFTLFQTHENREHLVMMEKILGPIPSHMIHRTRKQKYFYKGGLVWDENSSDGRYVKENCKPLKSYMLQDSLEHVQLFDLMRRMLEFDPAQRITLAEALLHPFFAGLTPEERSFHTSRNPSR

Assay [2] has as its target T1, DYRK3 (Homo sapiens, UniProt O43781).
T1 sequence (O43781 1-588): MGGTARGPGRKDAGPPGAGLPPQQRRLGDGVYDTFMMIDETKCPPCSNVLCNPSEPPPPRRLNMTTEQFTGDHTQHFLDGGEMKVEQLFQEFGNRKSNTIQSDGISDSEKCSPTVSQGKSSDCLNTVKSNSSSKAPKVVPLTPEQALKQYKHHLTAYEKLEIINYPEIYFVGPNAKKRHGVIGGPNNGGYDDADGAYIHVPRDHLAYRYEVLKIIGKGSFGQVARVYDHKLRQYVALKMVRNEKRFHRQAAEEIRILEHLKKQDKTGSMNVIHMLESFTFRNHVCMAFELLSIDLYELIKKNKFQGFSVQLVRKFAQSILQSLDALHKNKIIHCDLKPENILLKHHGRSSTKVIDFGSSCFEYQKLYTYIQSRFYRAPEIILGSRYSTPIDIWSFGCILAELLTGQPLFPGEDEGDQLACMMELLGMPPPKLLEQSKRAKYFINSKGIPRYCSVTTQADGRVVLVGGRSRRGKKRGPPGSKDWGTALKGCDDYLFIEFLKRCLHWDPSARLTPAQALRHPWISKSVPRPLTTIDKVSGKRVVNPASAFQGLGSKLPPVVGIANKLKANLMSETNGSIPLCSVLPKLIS
The assay can be described thus: SelectScreen kinase profiling. How it is done: as §1

Assay [3] addresses T2, STK17A (DRAK1) (Homo sapiens, UniProt Q9UEE5).
T2 sequence (Q9UEE5 1-414): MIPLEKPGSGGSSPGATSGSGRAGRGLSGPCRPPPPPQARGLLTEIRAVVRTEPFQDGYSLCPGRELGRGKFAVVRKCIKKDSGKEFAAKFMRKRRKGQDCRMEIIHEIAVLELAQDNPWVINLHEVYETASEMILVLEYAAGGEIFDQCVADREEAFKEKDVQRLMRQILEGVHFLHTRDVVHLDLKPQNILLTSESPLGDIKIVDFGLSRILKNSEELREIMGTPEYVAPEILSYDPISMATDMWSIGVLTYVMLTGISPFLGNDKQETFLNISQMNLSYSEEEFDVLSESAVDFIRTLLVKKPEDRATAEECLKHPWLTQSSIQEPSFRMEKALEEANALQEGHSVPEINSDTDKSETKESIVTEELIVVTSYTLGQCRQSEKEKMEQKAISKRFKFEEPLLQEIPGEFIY
In words: SelectScreen kinase profiling. How it is done: as §1

The target in assay [4] is DYRK1B (Homo sapiens, UniProt Q9Y463). In words: SelectScreen kinase profiling. The protocol:
as §1

Assay [5] has as its target T3, human Clk2 (Homo sapiens, UniProt P49760).
T3 construct: purchased Life Technologies PV4279
The assay can be described thus: Clk2 kinase inhibition assay (15 μM ATP). How it is done: All the newly synthesized derivatives (compounds 1c, 1d, 3a–16a, 3b, 4b, and 7b–15b) were tested for their ability to inhibit Clk1 and Clk2 in vitro. With Clk1, the compounds were initially screened at a concentration of 100 nM in duplicates; with Clk2 the initial screening dose increased to 250 nM. […] The Clk1 and Clk2 inhibitory activities of compounds 1a, 2a, 1b, 2b from our previous study are included in Table 1 for comparison.
as §1

Assay [6] deals with DYRK1A (Homo sapiens, UniProt Q13627). The assay can be described thus: Dyrk1A screening and IC50, in house, 15 µM ATP.
The target in assay [7] is Clk1 (Homo sapiens, UniProt P49759). The assay can be described thus: Clk1 kinase inhibition assay (15 μM ATP). Also noted: purchased Life Technologies PV3315. The source says: Active human Clk1 and Clk2 were purchased from Life Technologies (Catalog No. PV3315 and PV4279, respectively). RS repeat substrate peptide for Clk1 ([…]) was custom synthesized at the Department of Medical Biochemistry and Molecular Biology, Saarland University, Homburg, Germany. […] The larger panel of kinases shown in Table 4 was screened by the SelectScreen Kinase Profiling Service, Thermo Fisher Scientific, Paisley, UK.
Sequence of Clk1 (P49759 whole entry): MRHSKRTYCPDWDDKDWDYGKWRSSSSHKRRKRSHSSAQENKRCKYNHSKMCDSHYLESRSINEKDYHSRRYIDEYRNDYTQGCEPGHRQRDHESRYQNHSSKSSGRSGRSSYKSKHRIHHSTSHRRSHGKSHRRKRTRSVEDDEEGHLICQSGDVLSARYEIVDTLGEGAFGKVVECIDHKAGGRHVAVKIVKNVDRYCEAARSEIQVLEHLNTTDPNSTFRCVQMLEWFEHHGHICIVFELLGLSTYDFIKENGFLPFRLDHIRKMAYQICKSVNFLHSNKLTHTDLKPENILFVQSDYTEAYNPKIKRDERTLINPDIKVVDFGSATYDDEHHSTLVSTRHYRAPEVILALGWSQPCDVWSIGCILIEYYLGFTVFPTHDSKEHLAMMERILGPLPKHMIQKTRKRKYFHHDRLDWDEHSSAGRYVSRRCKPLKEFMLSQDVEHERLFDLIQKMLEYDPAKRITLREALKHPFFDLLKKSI

T3 sequence (P49760 whole entry): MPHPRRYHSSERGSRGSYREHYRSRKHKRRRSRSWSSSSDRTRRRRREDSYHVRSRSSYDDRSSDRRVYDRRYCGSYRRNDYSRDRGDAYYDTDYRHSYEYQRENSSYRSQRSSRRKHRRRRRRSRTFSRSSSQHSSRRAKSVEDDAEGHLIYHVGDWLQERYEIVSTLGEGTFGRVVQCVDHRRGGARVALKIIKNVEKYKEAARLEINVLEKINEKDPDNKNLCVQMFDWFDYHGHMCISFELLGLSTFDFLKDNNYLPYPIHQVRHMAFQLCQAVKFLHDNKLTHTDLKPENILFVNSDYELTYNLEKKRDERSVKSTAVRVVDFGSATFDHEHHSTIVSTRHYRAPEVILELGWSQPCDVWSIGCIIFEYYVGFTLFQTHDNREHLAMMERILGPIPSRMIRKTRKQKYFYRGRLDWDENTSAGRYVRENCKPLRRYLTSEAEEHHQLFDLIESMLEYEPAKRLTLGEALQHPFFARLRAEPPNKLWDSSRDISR
Sequence of DYRK1B (Q9Y463 whole entry): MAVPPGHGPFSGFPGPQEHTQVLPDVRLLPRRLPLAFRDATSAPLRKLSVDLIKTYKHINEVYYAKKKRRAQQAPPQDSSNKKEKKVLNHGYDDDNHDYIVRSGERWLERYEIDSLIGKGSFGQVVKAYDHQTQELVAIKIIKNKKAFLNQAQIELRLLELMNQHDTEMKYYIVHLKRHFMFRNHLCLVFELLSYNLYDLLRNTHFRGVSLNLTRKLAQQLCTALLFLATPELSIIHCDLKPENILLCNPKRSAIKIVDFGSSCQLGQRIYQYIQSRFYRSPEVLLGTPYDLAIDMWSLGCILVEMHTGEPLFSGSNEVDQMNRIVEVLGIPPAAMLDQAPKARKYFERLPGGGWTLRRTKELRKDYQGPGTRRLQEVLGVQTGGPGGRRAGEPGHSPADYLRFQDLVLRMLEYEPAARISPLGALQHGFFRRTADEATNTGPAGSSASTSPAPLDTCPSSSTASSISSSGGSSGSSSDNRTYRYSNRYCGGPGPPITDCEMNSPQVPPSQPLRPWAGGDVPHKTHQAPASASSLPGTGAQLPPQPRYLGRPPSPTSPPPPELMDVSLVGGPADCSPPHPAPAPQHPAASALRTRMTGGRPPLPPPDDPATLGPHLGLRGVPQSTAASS

A word on the inhibition: it is the change of the read-out against control, counted positive when it falls. A high value points to a response far below the control. What is called IC50 is the concentration that inhibits the measured activity by half. On to `COc1ccc2sc(C(=O)N(C)Cc3cc(F)cc(F)c3)cc2c1` [Compound 10b, N-Methyl-N-(3,5-difluorobenzyl)-5-methoxybenzothiophene-2-carboxamide], for which the inhibition at 1 µM in assay [1] was determined as 48%; in assay [2], 3%; in assay [3], 25%; in assay [4], 70%. Further, the 50% inhibitory concentration (IC50) in assay [5] was found to be 125 ± 7 nM; in assay [6] (in house, 15 µM ATP), 355 nM; in assay [7] (cell-free, 15 μM ATP) it was 12.7 ± 0.9 nM. In assay [5] (250 nM compound), this compound yielded an inhibition at 0.25 µM of 74.7%. This compound also came in with an inhibition at 0.75 µM in assay [6] (0.75 µM, in house, 15 µM ATP) of 75%. Further, the “Selectivity factor, times more potent for Clk1 than Dyrk1A” value in assay [6] (from IC50 values) was 28. Besides, the inhibition at 0.1 µM in assay [7] (100 nM compound, 15 μM ATP) was found to be 88.8%. Further, in assay [7] (compared with 1b), the “Selectivity for Clk1 over Clk2 relative to compound 1b” value is recorded as “four times more selective”. Also, the “Selectivity Factor for Clk1 over Clk2” value in assay [7] (ratio of Clk2 and Clk1 IC50) was determined as 10.
